From patent publication US9371527B2, “Compositions and methods related to protein displacement therapy for myotonic distrophy” (University of Rochester, priority 2006, dated 2016) come the findings set out here.

Common to all, as to assay type: in vivo, HSA^LR mice
In data set [1] the test system is ClC-1 protein. The experiment in a line: ClC-1 immunofluorescence after ClC-1 antisense morpholino, HSA^LR TA muscle. The note with it: 3 weeks after treatment, vs invert-treated control. As to the method: The morpholino was complementary to the 3′ splice site of ClC-1 pre-mRNA. Muscle fibers are outlined by wheat germ agglutinin (wga) and nuclei are highlighted by DAPI. FIGS. 24D and 24 E show brightfield (D) and fluorescence (E) images of a single FDB fiber showing preferential nuclear localization of the antisense morpholino (post injection day 5). […] Bars=20 μM.
Frozen transverse sections of TA muscle (10 μM) were stained with affinity-purified rabbit polyclonal anti-ClC-1 antibody (1:50; Alpha Diagnostic International) as previously described (Kanadia, R. N., et al. (2006) Proc Natl Acad Sci USA 103:11748-11753). Muscle sections from ClC-1 null mice and WT FVB mice served as negative and positive controls on each slide. Z-plane stacks consisting of 8 images separated by 0.25 μM were captured and deconvolved using Autoquant v9.3 software (Autoquant Imaging). Maximum-projection images were obtained using Metavue software (Universal Imaging Corporation). Exposure time and thresholding were identical for all comparisons of antisense vs. invert controls.

Data set [2] deals with ClC-1 channel. Put plainly: Whole cell patch clamp of single FDB muscle fibers after morpholino injection/electroporation. The note with it: for ClC-1 current density: 3-5 days after foot pad injection/electroporation; for ClC-1 deactivation kinetics: 3-5 days after injection, -100 mV. The procedure:
Antisense morpholino targeting the 3′ splice junction of ClC-1 exon 7a was injected into foot pad muscle of HSA^LR mice under general anesthesia. Uptake into muscle fibers was enhanced by in vivo electroporation. The morpholino was tagged with fluorescein. 4 days later, individual FDB muscle fibers were isolated. […] As a control, the opposite footpad was injected with morpholino having the inverted sequence. […] The peak current density in HSA^LR mice (center panel) is much lower than in wild-type mice (left panel). However, after morpholino treatment in HSA^LR mice (right panel), the current density is restored to levels that are similar to wild-type mice. […] The antisense morpholino (closed squares) restores chloride current density to normal levels (open circles or triangles).
The dashed lines represent the zero current level. Capacitative currents recorded from each fiber are shown in the insert of each panel (scale bars: vertical, 3 nA; horizontal, 4 ms). Superimposed traces (solid lines) of normalized ClC-1 current deactivation at −100 mV in FDB fibers obtained from invert- (circles) and antisense-treated (squares) HSA^LR mice and antisense-treated WT mice (triangles) fit with a second order exponential (symbols) are shown in the insert to the left hand panel. Note that accelerated ClC-1 deactivation kinetics of FDB fibers obtained from HSA^LR mice is normalized only following treatment with antisense morpholino. […] Smooth curves through each dataset were generated using a modified Boltzmann equation (Lueck, J. D., et al. (2007) J Gen Physiol 129:79-94). […] Mean±s.e.m.; *P<0.05 invert-treated HSA^LR fibers compared to each of the other experimental conditions; t-test. […] Mean±s.d.; n=3 to 7 per group. Antisense morpholino was injected into one TA, invert morpholino was injected into the contralateral TA, and gastrocnemius muscle served as an untreated control. **P<0.0001 for antisense- vs invert-treated control; ANOVA.
Therefore, the effect of AON treatment on ClC-1 channel function was determined Hindlimb foot pads of […] WT and HSA^LR mice were injected/electroporated with carboxyfluorescein-labeled antisense or invert morpholino. Patch clamp analysis was performed three-to-five days after injection, at a time when fibers were still small enough to maintain an effective voltage clamp (Lueck, J. D., et al. (2007) J Gen Physiol 129:79-94). […] Rescue of ClC-1 activity was not due to a shift in channel activation since the voltage dependence of relative channel open probability (Po) was not different between antisense and invert-injected HSA^LR and WT fibers (FIG. 26C).
Delivery of antisense and invert morpholinos into FDB fibers was achieved by injection and electroporation of hindlimb footpads. Briefly, 12-14-day-old HSA^LR mice were anesthetized by intraperitoneal injection of 100 mg/kg ketamine, 10 mg/kg xylazine, and 3 mg/kg acepromazine. Hindlimb foot pads then were injected with bovine hyaluronidase followed 1 hour later with 20 μg (10 μl, 2 μg/μl in PBS) of antisense or invert carboxyfluorescein-labeled morpholino. Uptake of morpholinos was enhanced by electroporation (100 V/cm, 20 pulses at 1 Hz, and 20 ms per pulse) of the foot pad immediately after injection (DiFranco, M., et al. (2006) Protein Expr Purif 47:281-288). Three to five days after injection/electroporation, individual FDB muscle fibers were isolated as previously described (Lueck, J. D., et al. (2007) J Gen Physiol 129:79-94). Brightfield and fluorescence (488 nm excitation) images of single FDB fibers were acquired using a 40× (1.4 NA) objective and a TILL IMAGO QE cooled-CCD camera. […] ClC-1 currents were measured and analyzed in whole cell patch clamp experiments (Hamill, O. P., et al. (1981) Pflugers Arch 391:85-100) using an approach identical to that described in detail elsewhere (Lueck, J. D., et al. (2007) J Gen Physiol 129:79-94). ClC-1 current density (pA/pF) was calculated in order to compare data across fibers of different sizes. […]
For orientation: In patch-clamp work, channel activity is measured electrically.

In data set [3] the test system is Titin, ZASP, Serca1 alternative splicing. The experiment in a line: RT-PCR of alternative splicing of other genes misregulated in DM1 after ClC-1 antisense morpholino. As to conditions: HSA^LR TA muscle. The source says: HSA^LR and WT mice have the same (FVB) inbred strain background. […] FIGS. 25D and 25E show the percentage of ClC-1 splice products that include exon 7a is shown at 3 (D) and 8 (E) weeks following morpholino injection. Mean±s.d.; n=3 per group; **P<0.001; *P=0.035 antisense- versus invert-treated controls; t-test. […] ClC-1 mRNA level is expressed in arbitrary units relative to housekeeping gene RNA polymerase II transcription factor IIB. Mean±s.d.; n=3 per group; *P=0.06 for antisense vs invert-treated control; t-test.
Mice were sacrificed three or eight weeks after morpholino injection. TA muscles were removed and frozen in liquid nitrogen. Total RNA was isolated with TriReagent (Molecular Research Center). cDNA synthesis was primed with oligo dT as described previously (Mankodi, A., et al. (2002) Mol Cell 10:35-44). Assays for alternative splicing of ClC-1 and Titin were described previously (Mankodi, A., et al. (2002) Mol Cell 10:35-44; Lin, X., et al. (2006) Hum Mol Genet 15:2087-2097). Primer sequences were
RT-PCR products (22 cycles) were separated on agarose gels, stained with SYBR green II, and scanned on a laser fluorimager (Molecular Dynamics). Band intensity was quantified using ImageQuant software. Total levels of ClC-1 mRNA were determined by quantitative real-time RT-PCR (Taqman, Applied Biosystems) relative to housekeeping gene RNA polymerase II transcription factor IIB.

With “antisense 1: morpholino 5′-CCAGGCACGGTCTGCAACAGAGAAG-3′ targeting the 3′ splice site of ClC-1 exon 7a (all phosphorodiamidate morpholino (PMO))”, the “sarcolemmal ClC-1 protein” value in data set [1] (listed as antisense morpholino) was “increase of sarcolemmal ClC-1 protein”; in data set [1] (listed as morpholino AON) it was “increased the level of ClC-1 protein in the sarcolemma”. The ClC-1 current density result in data set [2] (listed as antisense morpholino) is given as “restores normal chloride current density”; in data set [2] (listed as morpholino AON), “rescued to WT values”. The values for the ClC-1 deactivation kinetics result in data set [2] (listed as antisense morpholino) and in data set [2] (listed as morpholino AON) were “normalized” and “rescued to WT values”, respectively. Also, the “voltage dependence of relative channel open probability (Po)” value in data set [2] (HSA^LR and WT) is “not different”. Besides, the “alternative splicing of Serca1” value in data set [3] is recorded as “nor did it correct the alternative splicing”. Moreover, the “alternative splicing of ZASP” value in data set [3] was “nor did it correct the alternative splicing”. Moreover, the “alternative splicing of Titin m-line exon 5” value is given as “did not correct the misregulated alternative splicing of Titin m-line exon 5” in data set [3] (listed as ClC-1 antisense morpholino) and “nor did it correct the alternative splicing” in data set [3] (listed as antisense morpholino).
Consider “control morpholino: control morpholino 5′-GAAGAGACAACGTCTGGCACGGACC-3′, the 5′-3′ invert of the 3′ splice site blocker (all phosphorodiamidate morpholino (PMO)) [reference compound]”, for which the ClC-1 current density result in data set [2] (listed as invert morpholino) is listed as “not different from those of untreated HSA^LR fibers”; in data set [2] (listed as inverted morpholino) it was “markedly reduced”. In addition, the ClC-1 deactivation kinetics entry in data set [2] was “not different from those of untreated HSA^LR fibers”.
